Measured values from patent US9951038B2, “Quinazolin-4(3H)-one-type piperidine compounds and uses thereof” (Purdue Pharma L.P., priority 2012, dated 2018).

Experiments:
[1] = molecular target: human opioid receptor-like (ORL-1) (Homo sapiens, UniProt P41146); test: In vitro ORL-1 receptor [35S]GTPγS functional assay; type: biochemical; settings: for Emax: read-out: ORL-1 GTPγS Emax
[2] = molecular target: T1, CYP1A2 (Homo sapiens, UniProt P05177); test: Cytochrome P450 inhibition, pooled human hepatic microsome, CYP1A2; type: in vitro ADME
T1 sequence (P05177 1-516): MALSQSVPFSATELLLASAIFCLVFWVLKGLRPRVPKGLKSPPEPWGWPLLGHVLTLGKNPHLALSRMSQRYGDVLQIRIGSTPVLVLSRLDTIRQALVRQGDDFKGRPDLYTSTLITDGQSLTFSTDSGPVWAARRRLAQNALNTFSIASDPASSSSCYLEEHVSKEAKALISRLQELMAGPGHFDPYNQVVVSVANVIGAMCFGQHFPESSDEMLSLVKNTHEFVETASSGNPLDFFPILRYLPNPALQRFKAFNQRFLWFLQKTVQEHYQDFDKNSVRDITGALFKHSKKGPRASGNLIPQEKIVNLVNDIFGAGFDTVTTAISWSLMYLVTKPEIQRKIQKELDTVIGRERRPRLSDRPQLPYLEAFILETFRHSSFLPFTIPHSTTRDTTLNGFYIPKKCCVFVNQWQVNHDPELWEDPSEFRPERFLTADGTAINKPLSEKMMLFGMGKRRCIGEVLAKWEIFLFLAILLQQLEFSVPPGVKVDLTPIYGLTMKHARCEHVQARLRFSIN

[3] = molecular target: T2, CYP2C9 (Homo sapiens, UniProt P11712); test: Cytochrome P450 inhibition, pooled human hepatic microsome, CYP2C9; type: in vitro ADME
T2 construct: using commercially available pooled human hepatic microsome; from tissue; host or cells: pooled human hepatic microsomes

[4] = molecular target: T3, CYP2D6 (Homo sapiens, UniProt P10635); test: Cytochrome P450 inhibition, pooled human hepatic microsome, CYP2D6 (dextromethorphan O-demethylation); type: in vitro ADME; settings: 5 μmol/L dextromethorphan, 15 min, 37° C.
T3 construct: using commercially available pooled human hepatic microsome; from tissue; host or cells: pooled human hepatic microsomes

[5] = molecular target: T4, CYP3A4 (Homo sapiens, UniProt P08684); test: Cytochrome P450 inhibition, pooled human hepatic microsome, CYP3A4; type: in vitro ADME
T4 construct: using commercially available pooled human hepatic microsome; from tissue; host or cells: pooled human hepatic microsomes

[6] = molecular target: Nociceptin receptor (Homo sapiens, UniProt P41146); test: biochemical
Sequence of Nociceptin receptor (P41146 whole entry, looked up): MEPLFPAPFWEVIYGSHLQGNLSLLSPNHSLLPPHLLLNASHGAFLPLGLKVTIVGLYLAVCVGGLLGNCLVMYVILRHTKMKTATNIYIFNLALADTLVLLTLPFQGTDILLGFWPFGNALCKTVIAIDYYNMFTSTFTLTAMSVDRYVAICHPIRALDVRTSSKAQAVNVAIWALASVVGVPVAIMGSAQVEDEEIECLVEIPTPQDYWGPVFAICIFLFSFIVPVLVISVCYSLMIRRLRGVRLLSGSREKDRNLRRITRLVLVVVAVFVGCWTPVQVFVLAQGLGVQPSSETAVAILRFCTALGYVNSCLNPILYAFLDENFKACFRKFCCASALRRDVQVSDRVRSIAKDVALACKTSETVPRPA

Sequence of human opioid receptor-like (ORL-1) (P41146 whole entry): as the sequence (P41146 whole entry, looked up) above
T2 sequence (P11712 whole entry): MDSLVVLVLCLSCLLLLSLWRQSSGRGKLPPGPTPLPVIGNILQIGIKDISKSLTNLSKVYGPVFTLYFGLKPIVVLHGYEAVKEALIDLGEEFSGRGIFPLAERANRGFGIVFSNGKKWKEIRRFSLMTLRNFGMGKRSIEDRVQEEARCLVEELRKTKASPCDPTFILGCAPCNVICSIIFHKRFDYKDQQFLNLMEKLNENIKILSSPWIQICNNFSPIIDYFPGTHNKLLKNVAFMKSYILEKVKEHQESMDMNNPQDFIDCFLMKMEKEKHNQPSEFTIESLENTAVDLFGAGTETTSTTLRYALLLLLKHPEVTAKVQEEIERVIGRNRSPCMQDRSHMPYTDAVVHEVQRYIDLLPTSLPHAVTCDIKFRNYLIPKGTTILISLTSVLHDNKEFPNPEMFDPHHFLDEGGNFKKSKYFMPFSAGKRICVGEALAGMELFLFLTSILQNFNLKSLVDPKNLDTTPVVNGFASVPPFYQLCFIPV
T4 sequence (P08684 whole entry): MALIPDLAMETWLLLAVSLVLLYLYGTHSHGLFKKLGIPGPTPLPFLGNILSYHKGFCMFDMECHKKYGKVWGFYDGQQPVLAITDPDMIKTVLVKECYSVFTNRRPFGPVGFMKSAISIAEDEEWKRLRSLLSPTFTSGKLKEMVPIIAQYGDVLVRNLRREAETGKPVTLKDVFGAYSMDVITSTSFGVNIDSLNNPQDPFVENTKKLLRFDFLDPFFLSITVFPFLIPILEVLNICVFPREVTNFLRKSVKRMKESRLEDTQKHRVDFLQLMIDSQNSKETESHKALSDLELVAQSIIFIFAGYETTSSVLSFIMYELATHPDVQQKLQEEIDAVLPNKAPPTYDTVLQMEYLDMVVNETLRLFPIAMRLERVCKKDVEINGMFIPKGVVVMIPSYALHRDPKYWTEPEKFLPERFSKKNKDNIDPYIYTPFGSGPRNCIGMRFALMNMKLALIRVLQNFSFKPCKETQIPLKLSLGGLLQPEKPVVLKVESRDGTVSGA
T3 sequence (P10635 whole entry): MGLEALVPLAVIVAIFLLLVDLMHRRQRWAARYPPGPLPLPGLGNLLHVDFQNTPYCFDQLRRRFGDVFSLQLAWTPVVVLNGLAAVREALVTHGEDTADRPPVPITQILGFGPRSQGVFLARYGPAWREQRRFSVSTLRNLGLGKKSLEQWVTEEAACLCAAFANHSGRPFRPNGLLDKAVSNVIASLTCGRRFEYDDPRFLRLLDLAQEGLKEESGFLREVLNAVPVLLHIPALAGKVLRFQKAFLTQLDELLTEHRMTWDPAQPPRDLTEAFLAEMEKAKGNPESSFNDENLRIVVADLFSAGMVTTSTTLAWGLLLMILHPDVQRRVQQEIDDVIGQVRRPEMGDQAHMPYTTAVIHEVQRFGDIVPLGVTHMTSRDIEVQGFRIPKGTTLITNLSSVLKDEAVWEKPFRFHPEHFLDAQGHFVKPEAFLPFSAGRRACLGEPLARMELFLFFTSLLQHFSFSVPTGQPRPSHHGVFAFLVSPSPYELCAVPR

Compound | EC50 [1] [µM] | Emax [1] [%] | IC50 [2] [µM] | IC50 [3] [µM] | IC50 [4] [µM] | IC50 [5] [µM] | Ki [6] [µM]
O=c1[nH]c2ccccc2c(=O)n1C1C[C@H]2CCC[C@@H](C1)N2C1C[C@H]2CCC[C@@H](C1)C2 (stereo partly drawn) [12 (D1a)] | > 20 | 1.33 ± 0.33 | > 20 | > 20 | 8.9 | > 20 | –
O=C(O)c1nc2ccccc2c(=O)n1C1C[C@H]2CCC[C@@H](C1)N2C1C[C@H]2CCC[C@@H](C1)C2 (stereo partly drawn) [9 (D2b), 3-((1R,1′R,3R,3′R,5S,5′S)-[3,9′-bi(9′-azabicyclo[3.3.1]nonan)]-3′-yl)-4-oxo-3,4-dihydroquinazoline-2-carboxylic acid] | > 20 | 1 | > 20 | > 20 | 2.6 | > 20 | –
O=C(O)Cn1c(=O)n(C2C[C@H]3CCC[C@@H](C2)N3C2C[C@H]3CCC[C@@H](C2)C3)c(=O)c2ccccc21 (stereo partly drawn) [15 (D3a), 2-(3-((1R,1′R,3r,3′R,5S,5′S)-[3,9′-bi(9′-azabicyclo[3.3.1]nonan)]-3′-yl)-2,4-dioxo-3,4-dihydroquinazolin-1(2H)-yl)acetic acid] | > 20 | – | > 20 | > 20 | > 20 | > 20 | –
CCC1C[C@@H]2CC(N3[C@@H]4CCC[C@H]3CC(n3c(=O)c5ccccc5n(CC(=O)O)c3=O)C4)C[C@H](C1)C2 (stereo partly drawn) [24 (D459a), 2-(3-((1R,1′R,3r,3′R,5S,5′S)-7-ethyl-[3,9′-bi(9′-azabicyclo[3.3.1]nonan)]-3′-yl)-2,4-dioxo-3,4-dihydroquinazolin-1(2H)-yl)acetic acid] | > 20 | – | > 20 | > 20 | 18.7 | 5.8 | 0.229
O=C(O)Cn1c(=O)n(C2C[C@H]3CCC[C@@H](C2)N3C2C[C@H]3CCCC[C@@H](C2)C3)c(=O)c2ccccc21 (stereo partly drawn) [21 (J3a), 2-(3-((1R,3R,5S)-9-((1R,6S,8r)-bicyclo[4.3.1]decan-8-yl)-9-azabicyclo[3.3.1]nonan-3-yl)-2,4-dioxo-3,4-dihydroquinazolin-1(2H)-yl)acetic acid] | > 20 | – | 5.5 | > 20 | > 20 | 2.3 | –
CCOC(=O)c1nc2ccccc2c(=O)n1C1C[C@H]2CCC[C@@H](C1)N2C1C[C@H]2CCC[C@@H](C1)C2 (stereo partly drawn) [8 (D12b), ethyl 3-((1R,1′R,3R,3′R,5S,5′S)-9′-aza[3,9′-bi(bicyclo[3.3.1]nonan)]-3′-yl)-4-oxo-3,4-dihydroquinazoline-2-carboxylate] | – | – | > 20 | > 20 | 9.7 | 6.5 | 0.252
O=C(O)CNC(=O)Cn1c(=O)n(C2C[C@H]3CCC[C@@H](C2)N3C2C[C@H]3CCC[C@@H](C2)C3)c(=O)c2ccccc21 (stereo partly drawn) [18 (D28a), 2-(2-(3-((1R,1′R,3r,3′R,5S,5′S)-[3,9′-bi(9′-azabicyclo[3.3.1]nonan)]-3′-yl)-2,4-dioxo-3,4-dihydroquinazolin-1(2H)-yl)acetamido)acetic acid] | > 20 | 1 | > 20 | > 20 | 1.6 | > 20 | –
